From US7304174B2, “CaSR antagonist” (Japan Tobacco Inc., priority 2003, dated 2007)

Key:
[1] = target: T1, human calcium receptor (Homo sapiens, UniProt P41180); test: Evaluation of antagonistic action on calcium receptor using reporter gene (luciferase); assay type: cell-based; settings: transformed rat adrenal derived cells, 5 mM calcium chloride, culture 4 hrs, luciferase activity; read-out: Reporter gene assay (IC50, concentration showing 50% inhibitory rate)
T1 construct: expressed in transfected cells; host or cells: cell strain derived from rat adrenal, co-transformed with luciferase cDNA
T1 sequence (P41180 20-1078): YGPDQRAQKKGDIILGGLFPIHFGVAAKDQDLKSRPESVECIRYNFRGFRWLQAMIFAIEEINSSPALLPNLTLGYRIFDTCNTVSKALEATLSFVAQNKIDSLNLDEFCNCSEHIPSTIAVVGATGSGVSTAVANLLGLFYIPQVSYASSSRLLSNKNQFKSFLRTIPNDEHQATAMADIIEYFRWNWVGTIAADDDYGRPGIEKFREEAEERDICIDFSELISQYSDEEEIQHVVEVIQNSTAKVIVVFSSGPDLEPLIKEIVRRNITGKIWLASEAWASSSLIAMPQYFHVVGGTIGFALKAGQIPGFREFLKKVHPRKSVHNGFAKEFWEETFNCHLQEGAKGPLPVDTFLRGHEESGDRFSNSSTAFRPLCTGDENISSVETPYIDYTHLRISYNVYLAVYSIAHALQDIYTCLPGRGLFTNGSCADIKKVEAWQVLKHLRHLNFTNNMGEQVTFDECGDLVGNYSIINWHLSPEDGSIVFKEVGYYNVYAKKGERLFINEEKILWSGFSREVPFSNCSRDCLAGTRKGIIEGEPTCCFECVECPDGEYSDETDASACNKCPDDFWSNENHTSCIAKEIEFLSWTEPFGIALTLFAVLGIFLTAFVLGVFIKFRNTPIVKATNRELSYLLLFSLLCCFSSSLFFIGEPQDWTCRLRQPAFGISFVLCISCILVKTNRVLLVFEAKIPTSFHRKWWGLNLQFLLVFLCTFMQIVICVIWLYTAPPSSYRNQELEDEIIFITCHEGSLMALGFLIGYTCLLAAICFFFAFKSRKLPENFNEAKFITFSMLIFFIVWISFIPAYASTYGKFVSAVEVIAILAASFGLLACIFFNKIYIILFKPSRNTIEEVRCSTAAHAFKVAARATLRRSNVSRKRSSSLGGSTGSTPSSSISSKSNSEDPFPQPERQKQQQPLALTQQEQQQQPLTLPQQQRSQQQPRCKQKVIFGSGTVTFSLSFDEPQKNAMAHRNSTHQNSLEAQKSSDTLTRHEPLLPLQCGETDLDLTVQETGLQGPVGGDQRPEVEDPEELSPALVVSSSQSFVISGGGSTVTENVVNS
How it was run: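 Rat adrenal-derived cells transfected with luciferase and human calcium receptor cDNA, in F12 with 0.5% dialyzed horse serum and 0.25% dialyzed fetal bovine serum. Luciferase luminescence gave % inhibition vs control and blank; IC50 at 50% inhibition.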

[2] = target: T2, CYP2D6 (Homo sapiens, UniProt P10635); test: Metabolic enzyme CYP2D6 inhibitory activity (inhibition measurement kit); assay type: in vitro ADME; settings: enzyme activity free of test compound as 100%, >10 means over 10 μM
T2 construct: purchased BD Bioscience
T2 sequence (P10635 whole entry): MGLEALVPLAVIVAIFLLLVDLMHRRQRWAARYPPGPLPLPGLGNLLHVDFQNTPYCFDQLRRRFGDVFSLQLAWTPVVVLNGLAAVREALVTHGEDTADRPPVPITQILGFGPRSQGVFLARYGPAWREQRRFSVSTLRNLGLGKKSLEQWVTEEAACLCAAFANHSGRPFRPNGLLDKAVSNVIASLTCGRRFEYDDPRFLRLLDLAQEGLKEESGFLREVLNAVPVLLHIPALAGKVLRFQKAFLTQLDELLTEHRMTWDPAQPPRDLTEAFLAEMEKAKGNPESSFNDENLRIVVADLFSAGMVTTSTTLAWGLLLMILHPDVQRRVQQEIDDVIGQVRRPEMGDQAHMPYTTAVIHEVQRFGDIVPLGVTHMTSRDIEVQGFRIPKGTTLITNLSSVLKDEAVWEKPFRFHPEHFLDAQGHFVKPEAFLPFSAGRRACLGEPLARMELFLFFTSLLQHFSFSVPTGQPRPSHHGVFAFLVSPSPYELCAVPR
Description: Using a metabolic enzyme CYP2D6 inhibition measurement kit (BD Bioscience) and following the manual of the kit, the inhibitory activity of the test compound was measured. With the enzyme activity free of the test compound as 100%, the concentration (IC50) showing 50% inhibition was determined. The results are shown in Table 63 and Table 64, wherein “>10” means over 10 μM.

[3] = system: PTH secretion; test: PTH secretion action, Experimental Example 2 (serum PTH after oral administration); assay type: in vivo, male SD rats; settings: test compound administration group, 1 mg/5 ml/kg oral, rats fasted 20 hr
Description: The test compound was orally administered to 5 to 9-week-old male SD rats (Charles River Japan, Inc.) fasted for 20 hr, using a solvent (0.5% methyl cellulose solution) at a dose of 1 mg/5 ml/kg. A solvent alone was orally administered to the control group at a dose of 5 ml/kg. The blood was drawn from the tail vein immediately before and, 15 min, 30 min, 60 min and 120 min after the administration of the test compound, and serum was obtained. The serum PTH concentration was measured using rat PTH ELISA kit (Amersham Biosciences).

Q: For `CC(OC[C@H](O)CNC(C)(C)Cc1ccc2ccccc2c1)c1ccccc1OCc1ccccc1C(=O)O` (stereo partly shown) [2-20′], which IC50 [1] is on record?
A: 21 nM

Q: And the IC50 [2]?
A: > 10000 nM

Q: What does the source list for `Cc1cc(-c2ccccc2[C@@H](C)OC[C@H](O)CNC(C)(C)Cc2ccc(Cl)c(F)c2)ccc1C(=O)O` [Example 1-2, 2′-[(1R)-[(2R)-3-[[1-(4-Chloro-3-fluorophenyl)-2-methylpropan-2-yl]amino]-2-hydroxypropoxy]ethyl]-3-methylbiphenyl-4-carboxylic acid]?
A: IC50 [1]: 13 nM; Serum PTH concentration 15 min later [3]: 28.5 ± 5.3 pg/mL; Serum PTH concentration 30 min later [3]: 27.1 ± 2.3 pg/mL; Serum PTH concentration 60 min later [3]: 10.5 ± 1.3 pg/mL; Serum PTH concentration 120 min later [3]: 12.4 ± 1.6 pg/mL

Q: Which IC50 [1] does the source give for `Cc1ccc(CC(C)(C)NC[C@@H](O)CO[C@H](C)c2ccccc2-c2ccc(C(=O)O)c(C)c2)cc1Cl` [Example 1-3, 2′-[1-[(2R)-3-[[1-(3-chloro-4-methylphenyl)-2-methylpropan-2-yl]amino]-2-hydroxypropoxy]ethyl]-3-methylbiphenyl-4-carboxylic acid] here?
A: 10 nM

Q: What about the “Serum PTH concentration 15 min later” value [3] of the same compound?
A: 23.8 ± 1.6 pg/mL

Q: What about the “Serum PTH concentration 30 min later” value [3] of the same compound?
A: 25.1 ± 3.9 pg/mL

Q: What about the “Serum PTH concentration 60 min later” value [3] of the same compound?
A: 9.5 ± 0.5 pg/mL

Q: What about the “Serum PTH concentration 120 min later” value [3] of the same compound?
A: 11.6 ± 0.9 pg/mL

Q: `Cc1cc(-c2ccccc2[C@@H](C)OC[C@H](O)CNC(C)(C)Cc2ccc(Cl)cc2F)ccc1C(=O)O` [Example 1-6, 2′-[1-[(2R)-3-[[1-(4-chloro-2-fluorophenyl)-2-methylpropan-2-yl]amino]-2-hydroxypropoxy]ethyl]-3-methylbiphenyl-4-carboxylic acid] was tested. Which IC50 [1] did it give?
A: 20 nM

Q: And the “Serum PTH concentration 15 min later” value [3]?
A: 28.9 ± 6.9 pg/mL

Q: What about the “Serum PTH concentration 30 min later” value [3] of the same compound?
A: 19.2 ± 3.1 pg/mL

Q: And the “Serum PTH concentration 60 min later” value [3]?
A: 10.0 ± 1.7 pg/mL

Q: What about the “Serum PTH concentration 120 min later” value [3] of the same compound?
A: 8.3 ± 0.6 pg/mL

Q: With `COc1cc(-c2ccccc2[C@@H](C)OC[C@H](O)CNC(C)(C)Cc2ccc3ccccc3c2)ccc1C(=O)O` [Example 1-26, 2′-[1-[(2R)-3-[[1-(naphthalen-2-yl)-2-methylpropan-2-yl]amino]-2-hydroxypropoxy]ethyl]-3-methoxybiphenyl-4-carboxylic acid] as the compound, how does the IC50 [1] read?
A: 14 nM

Q: What about the IC50 [2] of the same compound?
A: > 10000 nM

Q: With `COc1cc(C(=O)O)ccc1-c1ccccc1[C@@H](C)OC[C@H](O)CNC(C)(C)Cc1ccc2ccccc2c1` [Example 1-27, 2′-[1-[(2R)-3-[[1-(naphthalen-2-yl)-2-methylpropan-2-yl]amino]-2-hydroxypropoxy]ethyl]-2-methoxybiphenyl-4-carboxylic acid] as the compound, how does the IC50 [1] read?
A: 14 nM

Q: What about the IC50 [2] of the same compound?
A: > 10000 nM

Q: What does the source list for `CCc1cc(-c2ccccc2[C@@H](C)OC[C@H](O)CNC(C)(C)Cc2ccc3ccccc3c2)ccc1C(=O)O` [Example 1-30, 3-ethyl-2′-[1-[(2R)-3-[[1-(naphthalen-2-yl)-2-methylpropan-2-yl]amino]-2-hydroxypropoxy]ethyl]biphenyl-4-carboxylic acid]?
A: IC50 [1]: 7 nM; Serum PTH concentration 15 min later [3]: 26.1 ± 2.3 pg/mL; Serum PTH concentration 30 min later [3]: 24.2 ± 3.3 pg/mL; Serum PTH concentration 60 min later [3]: 18.2 ± 1.3 pg/mL; Serum PTH concentration 120 min later [3]: 13.8 ± 0.6 pg/mL

Q: Which results are given for `CC(C)c1cc(-c2ccccc2[C@@H](C)OC[C@H](O)CNC(C)(C)Cc2ccc3ccccc3c2)ccc1C(=O)O` [Example 1-32, 2′-[1-[(2R)-3-[[1-(naphthalen-2-yl)-2-methylpropan-2-yl]amino]-2-hydroxypropoxy]ethyl]-3-isopropylbiphenyl-4-carboxylic acid]?
A: IC50 [1]: 2 nM; IC50 ([2]; human, CYP2D6 inhibition measurement kit (BD Bioscience)): 10000 nM

Q: Which results are given for `CCc1cc(-c2ccccc2[C@@H](C)OC[C@H](O)CNC(C)(C)Cc2ccc(C)c(F)c2)ccc1C(=O)O` [Example 1-33, 3-ethyl-2′-[1-[(2R)-3-[[1-(3-fluoro-4-methylphenyl)-2-methylpropan-2-yl]amino]-2-hydroxypropoxy]ethyl]biphenyl-4-carboxylic acid]?
A: IC50 [1]: 5 nM; IC50 [2]: > 10000 nM

Q: What does the source list for `Cc1ccc(CC(C)(C)NC[C@@H](O)CO[C@H](C)c2ccccc2-c2ccc(C(=O)O)c(C(C)C)c2)cc1F` [Example 1-34, 2′-[1-[(2R)-3-[[1-(3-fluoro-4-methylphenyl)-2-methylpropan-2-yl]amino]-2-hydroxypropoxy]ethyl]-3-isopropylbiphenyl-4-carboxylic acid]?
A: IC50 [1]: 5 nM; IC50 [2]: > 10000 nM

Q: Which IC50 [1] does the source give for `Cc1ccc(CC(C)(C)NC[C@@H](O)CO[C@H](C)c2ccccc2Oc2ccc(C(=O)O)c([N+](=O)[O-])c2)cc1F` [Example 2-29, 4-[2-[1-[(2R)-3-[[1-(3-fluoro-4-methylphenyl)-2-methylpropan-2-yl]amino]-2-hydroxypropoxy]ethyl]phenoxy]-2-nitrobenzoic acid] here?
A: 11 nM

Q: For `Cc1ccc(CC(C)(C)NC[C@@H](O)CO[C@H](C)c2ccccc2Oc2ccc(C(=O)O)cc2Cl)cc1F` [Example 2-30, 4-[2-[1-[(2R)-3-[[1-(3-fluoro-4-methylphenyl)-2-methylpropan-2-yl]amino]-2-hydroxypropoxy]ethyl]phenoxy]-3-chlorobenzoic acid], which IC50 [1] is on record?
A: 3 nM

Q: For `Cc1ccc(CC(C)(C)NC[C@@H](O)CO[C@H](C)c2ccccc2Oc2ccc(C(=O)O)c(Cl)c2)cc1F` [Example 2-31, 4-[2-[1-[(2R)-3-[[1-(3-fluoro-4-methylphenyl)-2-methylpropan-2-yl]amino]-2-hydroxypropoxy]ethyl]phenoxy]-2-chlorobenzoic acid], which IC50 [1] is on record?
A: 16 nM

Q: With `Cc1ccc(CC(C)(C)NC[C@@H](O)CO[C@H](C)c2ccccc2Oc2ccc(C(=O)O)c(C(F)(F)F)c2)cc1F` [Example 2-32, 4-[2-[1-[(2R)-3-[[1-(3-fluoro-4-methylphenyl)-2-methylpropan-2-yl]amino]-2-hydroxypropoxy]ethyl]phenoxy]-2-trifluoromethylbenzoic acid] as the compound, how does the IC50 [1] read?
A: 14 nM

Q: `Cc1ccc(CC(C)(C)NC[C@@H](O)CO[C@H](C)c2ccccc2Oc2ccc(C(=O)O)cc2C(F)(F)F)cc1F` [Example 2-33, 4-[2-[1-[(2R)-3-[[1-(3-fluoro-4-methylphenyl)-2-methylpropan-2-yl]amino]-2-hydroxypropoxy]ethyl]phenoxy]-3-trifluoromethylbenzoic acid] was tested. Which IC50 [1] did it give?
A: 2 nM

Q: How did the IC50 [1] turn out when `Cc1ccc(CC(C)(C)NC[C@@H](O)CO[C@H](C)c2ccccc2Oc2ccc(C(=O)O)cc2F)cc1F` [Example 2-34, 4-[2-[1-[(2R)-3-[[1-(3-fluoro-4-methylphenyl)-2-methylpropan-2-yl]amino]-2-hydroxypropoxy]ethyl]phenoxy]-3-fluorobenzoic acid] was run?
A: 6 nM

Q: Which IC50 [1] does the source give for `C[C@@H](OC[C@H](O)CNC(C)(C)Cc1ccc(Cl)c(F)c1)c1ccccc1Oc1ccc(C(=O)O)cc1` [Example 2-35, 4-[2-[1-[(2R)-3-[[1-(4-chloro-3-fluorophenyl)-2-methylpropan-2-yl]amino]-2-hydroxypropoxy]ethyl]phenoxy]benzoic acid] here?
A: 11 nM

Q: How did the IC50 [1] turn out when `Cc1cc(C(=O)O)ccc1Oc1ccccc1C(C)OC[C@H](O)CNC(C)(C)Cc1ccc(Cl)c(F)c1` (stereo partly drawn) [Example 2-36, 4-[2-[1-[(2R)-3-[[1-(4-chloro-3-fluorophenyl)-2-methylpropan-2-yl]amino]-2-hydroxypropoxy]ethyl]phenoxy]-5-methylbenzoic acid] was run?
A: 13 nM
